Test results reported in US12661345B2, “Compositions for the treatment of hypertension” (The George Institute for Global Health, priority 2017, dated 2026).

Tests used:
[1] = system: participants with migraine; experiment: Subject status / participant withdrawals by visit in the 3×3 factorial trial
Excerpt: Difference between groups in participant withdrawals from treatment • 2.

[2] = system: participants with migraine; experiment: Office blood pressure in 12-week double blind randomized 3×3 factorial trial; type: in vivo, human
Procedure: There was a 4 week screening period and another 4-week post study drug observational period.
There was a 4-week screening period and another 4-week post study drug observational period.
Group 2 received the low-dose BP lowering combination and simvastatin (i.e., telmisartan 20 mg+amlodipine 2.5 mg+simvastatin). Group 3 received the low-dose BP lowering combination and placebo (i.e., telmisartan 20 mg+amlodipine 2.5 mg+placebo). […] Group 9 received double placebo.
Office BP was measured following the recommendations of the Australian National Heart Foundation. Participants were rested in the seated position for 5 minutes, an appropriate cuff size was selected and 3 measurements of BP were recorded using an Omron HEM907 monitor or equivalent validated automated digital BP monitor. Principles of automated office BP measurements were applied whereby the patient was left alone during BP recording.
All analyses of study outcomes were conducted according to the principle of intention-to-treat. The analyses of continuous outcomes such SBP and LDL-cholesterol at 12 weeks was performed using ANCOVA including the treatment arm and baseline values as a covariate. Additional analyses included interim measurements in a longitudinal model including treatment arm, visit, and treatment by visit interaction as well as the baseline measurement. Within-patient correlations were modelled using generalized estimating equations. A similar approach was applied to binary endpoints with log-binomial regression used in place of linear regression. There were also pre-defined subgroup analyses, baseline BP, baseline LDL, gender and age.

[3] = Randomization (baseline, before treatment)
[4] = Randomization, BP arm versus placebo, interval in brackets
[5] = Week 4, BP arm versus placebo, interval in brackets
[6] = Week 12, BP arm versus placebo, interval in brackets
[7] = Week 16 (after 4-week post study drug period)
[8] = Week 16, BP arm versus placebo, interval in brackets
[9] = overall line, BP arm versus placebo, interval in brackets, footnote # not given

CC(C)NCC(O)COc1cccc2ccccc12 (stereo not shown) [Propranolol, propranolol]
Discontinuing: Deceased (percent) ([1]; Week 4): (0.0%) | Discontinuing: Deceased (percent) ([1]; Week 8): (0.0%) | Discontinuing: Deceased (percent) ([1]; Week 12): (0.0%) | Diastolic Blood Pressure Mean (SD) [2, 3]: 10 85.1 (12.48) mmHg | Diastolic Blood Pressure Q1 [2, 3]: 75.7 mmHg | Diastolic Blood Pressure Q2 [2, 3]: 77.7 mmHg | Diastolic Blood Pressure Q3 [2, 3]: 95.7 mmHg | Diastolic Blood Pressure min [2, 3]: 73 mmHg | Systolic Blood Pressure Mean (SD) [2, 3]: 10 130.4 (16.09) mmHg | Systolic Blood Pressure Q1 [2, 3]: 116.7 mmHg | Systolic Blood Pressure Q2 [2, 3]: 129.3 mmHg | Systolic Blood Pressure Q3 [2, 3]: 146.3 mmHg | Systolic Blood Pressure max [2, 3]: 153 mmHg | Diastolic Blood Pressure Mean difference [2, 4]: 3.67 (−4.68, 12.02) mmHg | Systolic Blood Pressure Mean difference [2, 4]: 6.52 (−4.86, 17.91) mmHg | Diastolic Blood Pressure Mean (SD) ([2]; Week 4): 10 75.5 (9.75) mmHg | Diastolic Blood Pressure Q1 ([2]; Week 4): 69.0 mmHg | Diastolic Blood Pressure Q2 ([2]; Week 4): 73.3 mmHg | Diastolic Blood Pressure Q3 ([2]; Week 4): 83.3 mmHg | Diastolic Blood Pressure max ([2]; Week 4): 89 mmHg | Diastolic Blood Pressure min ([2]; Week 4): 62 mmHg | Diastolic Blood Pressure, Change from Baseline, Mean (SD) ([2]; Week 4): 10 −9.6 (5.66) | Diastolic Blood Pressure, Change from Baseline, Q1 ([2]; Week 4): −13.0 | Diastolic Blood Pressure, Change from Baseline, Q2 ([2]; Week 4): −10.3 | Diastolic Blood Pressure, Change from Baseline, Q3 ([2]; Week 4): −4.3 | Diastolic Blood Pressure, Change from Baseline, max ([2]; Week 4): −1 | Diastolic Blood Pressure, Change from Baseline, min ([2]; Week 4): −19 | Systolic Blood Pressure Mean (SD) ([2]; Week 4): 10 121.3 (14.92) mmHg | Systolic Blood Pressure Q1 ([2]; Week 4): 108.7 mmHg | Systolic Blood Pressure Q2 ([2]; Week 4): 116.8 mmHg | Systolic Blood Pressure Q3 ([2]; Week 4): 135.3 mmHg | Systolic Blood Pressure max ([2]; Week 4): 146 mmHg | Systolic Blood Pressure, Change from Baseline, Mean (SD) ([2]; Week 4): 10 −9.1 (5.63) | Systolic Blood Pressure, Change from Baseline, Q1 ([2]; Week 4): −13.3 | Systolic Blood Pressure, Change from Baseline, Q2 ([2]; Week 4): −8.5 | Systolic Blood Pressure, Change from Baseline, Q3 ([2]; Week 4): −5.0 | Systolic Blood Pressure, Change from Baseline, max ([2]; Week 4): −1 | Systolic Blood Pressure, Change from Baseline, min ([2]; Week 4): −18 | Diastolic Blood Pressure Mean difference [2, 5]: −3.53 (−11.29, 4.22) mmHg | Systolic Blood Pressure Mean difference [2, 5]: −2.60 (−14.65, 9.45) mmHg | Diastolic Blood Pressure, Change from Baseline, Mean difference ([2]; Week 4, interval in brackets): −7.53 (−13.19, −1.88) | Systolic Blood Pressure, Change from Baseline, Mean difference ([2]; Week 4, interval in brackets): −9.23 (−17.31, −1.16) | Diastolic Blood Pressure Mean (SD) ([2]; Week 8): 10 75.0 (8.82) mmHg | Diastolic Blood Pressure Q1 ([2]; Week 8): 66.3 mmHg | Diastolic Blood Pressure Q2 ([2]; Week 8): 76.5 mmHg | Diastolic Blood Pressure Q3 ([2]; Week 8): 83.3 mmHg | Diastolic Blood Pressure max ([2]; Week 8): 85 mmHg | Diastolic Blood Pressure min ([2]; Week 8): 61 mmHg | Diastolic Blood Pressure, Change from Baseline, Mean (SD) ([2]; Week 8): 10 −10.1 (6.39) | Diastolic Blood Pressure, Change from Baseline, Q1 ([2]; Week 8): −12.7 | Diastolic Blood Pressure, Change from Baseline, Q2 ([2]; Week 8): −10.8 | Diastolic Blood Pressure, Change from Baseline, Q3 ([2]; Week 8): −7.0 | Diastolic Blood Pressure, Change from Baseline, max ([2]; Week 8): 0 | Diastolic Blood Pressure, Change from Baseline, min ([2]; Week 8): −22 | Systolic Blood Pressure Mean (SD) ([2]; Week 8): 10 118.6 (12.56) mmHg | Systolic Blood Pressure Q1 ([2]; Week 8): 112.3 mmHg | Systolic Blood Pressure Q2 ([2]; Week 8): 119.5 mmHg | Systolic Blood Pressure Q3 ([2]; Week 8): 127.0 mmHg | Systolic Blood Pressure max ([2]; Week 8): 135 mmHg | Systolic Blood Pressure min ([2]; Week 8): 95 mmHg | Systolic Blood Pressure, Change from Baseline, Mean (SD) ([2]; Week 8): 10 −11.8 (11.44) | Systolic Blood Pressure, Change from Baseline, Q1 ([2]; Week 8): −18.0 | Systolic Blood Pressure, Change from Baseline, Q2 ([2]; Week 8): −11.8 | Systolic Blood Pressure, Change from Baseline, Q3 ([2]; Week 8): −4.3 | Systolic Blood Pressure, Change from Baseline, max ([2]; Week 8): 6 | Systolic Blood Pressure, Change from Baseline, min ([2]; Week 8): −30 | Diastolic Blood Pressure Mean difference ([2]; Week 8, BP arm versus placebo, interval in brackets): −3.67 (−10.23, 2.90) mmHg | Diastolic Blood Pressure, Change from Baseline, Mean difference ([2]; Week 8, interval in brackets): −7.67 (−12.92, −2.41) | Systolic Blood Pressure, Change from Baseline, Mean difference ([2]; Week 8, interval in brackets): −7.30 (−17.13, 2.53) | Diastolic Blood Pressure, Change from Baseline, Mean (SD) ([2]; Week 12): 10 −10.5 (6.44) | Diastolic Blood Pressure, Change from Baseline, Q1 ([2]; Week 12): −16.7 | Diastolic Blood Pressure, Change from Baseline, Q2 ([2]; Week 12): −9.3 | Diastolic Blood Pressure, Change from Baseline, Q3 ([2]; Week 12): −4.3 | Diastolic Blood Pressure, Change from Baseline, max ([2]; Week 12): −3 | Diastolic Blood Pressure, Change from Baseline, min ([2]; Week 12): −22 | Systolic Blood Pressure, Change from Baseline, Mean (SD) ([2]; Week 12): 10 −10.9 (10.07) | Systolic Blood Pressure, Change from Baseline, Q1 ([2]; Week 12): −17.0 | Systolic Blood Pressure, Change from Baseline, Q2 ([2]; Week 12): −12.8 | Systolic Blood Pressure, Change from Baseline, Q3 ([2]; Week 12): −4.0 | Systolic Blood Pressure, Change from Baseline, max ([2]; Week 12): 5 | Systolic Blood Pressure, Change from Baseline, min ([2]; Week 12): −30 | Diastolic Blood Pressure Mean (SD) ([2]; Week 12 (end of treatment)): 10 74.6 (15.07) mmHg | Diastolic Blood Pressure Q1 ([2]; Week 12 (end of treatment)): 60.7 mmHg | Diastolic Blood Pressure Q2 ([2]; Week 12 (end of treatment)): 70.0 mmHg | Diastolic Blood Pressure Q3 ([2]; Week 12 (end of treatment)): 85.7 mmHg | Diastolic Blood Pressure max ([2]; Week 12 (end of treatment)): 97 mmHg | Diastolic Blood Pressure min ([2]; Week 12 (end of treatment)): 54 mmHg | Systolic Blood Pressure Mean (SD) ([2]; Week 12 (end of treatment)): 10 119.5 (17.83) mmHg | Systolic Blood Pressure Q2 ([2]; Week 12 (end of treatment)): 117.5 mmHg | Systolic Blood Pressure Q3 ([2]; Week 12 (end of treatment)): 135.3 mmHg | Systolic Blood Pressure max ([2]; Week 12 (end of treatment)): 145 mmHg | Systolic Blood Pressure min ([2]; Week 12 (end of treatment)): 88 mmHg | Diastolic Blood Pressure Mean difference [2, 6]: −3.50 (−14.77, 7.77) mmHg | Systolic Blood Pressure Mean difference [2, 6]: −1.77 (−14.87, 11.34) mmHg | Diastolic Blood Pressure, Change from Baseline, Mean difference ([2]; Week 12, interval in brackets): −7.50 (−13.65, −1.35) | Systolic Blood Pressure, Change from Baseline, Mean difference ([2]; Week 12, interval in brackets): −8.40 (−16.80, −0.00) | Change in DBP from baseline to 12 weeks Mean (SD) ([2]; Week 12 v/s Baseline): 10 −10.5 (6.44) mmHg | Change in DBP from baseline to 12 weeks Q1 ([2]; Week 12 v/s Baseline): −16.7 mmHg | Change in DBP from baseline to 12 weeks Q2 ([2]; Week 12 v/s Baseline): −9.3 mmHg | Change in DBP from baseline to 12 weeks Q3 ([2]; Week 12 v/s Baseline): −4.3 mmHg | Change in DBP from baseline to 12 weeks max ([2]; Week 12 v/s Baseline): −3 mmHg | Change in DBP from baseline to 12 weeks min ([2]; Week 12 v/s Baseline): −22 mmHg | Change in SBP from baseline to 12 weeks Mean (SD) ([2]; Week 12 v/s Baseline): 10 −10.9 (10.07) mmHg | Change in SBP from baseline to 12 weeks Q1 ([2]; Week 12 v/s Baseline): −17.0 mmHg | Change in SBP from baseline to 12 weeks Q2 ([2]; Week 12 v/s Baseline): −12.8 mmHg | Change in SBP from baseline to 12 weeks Q3 ([2]; Week 12 v/s Baseline): −4.0 mmHg | Change in SBP from baseline to 12 weeks max ([2]; Week 12 v/s Baseline): 5 mmHg | Change in SBP from baseline to 12 weeks min ([2]; Week 12 v/s Baseline): −30 mmHg | Diastolic Blood Pressure, Change from Baseline, Mean (SD) ([2]; Week 16): 9 −3.9 (4.82) | Diastolic Blood Pressure, Change from Baseline, Q1 ([2]; Week 16): −7.7 | Diastolic Blood Pressure, Change from Baseline, Q2 ([2]; Week 16): −2.7 | Diastolic Blood Pressure, Change from Baseline, Q3 ([2]; Week 16): −0.7 | Diastolic Blood Pressure, Change from Baseline, max ([2]; Week 16): 4 | Diastolic Blood Pressure, Change from Baseline, min ([2]; Week 16): −11 | Systolic Blood Pressure, Change from Baseline, Mean (SD) ([2]; Week 16): 9 −2.3 (5.95) | Systolic Blood Pressure, Change from Baseline, Q1 ([2]; Week 16): −6.3 | Systolic Blood Pressure, Change from Baseline, Q2 ([2]; Week 16): −3.3 | Systolic Blood Pressure, Change from Baseline, Q3 ([2]; Week 16): 2.3 | Systolic Blood Pressure, Change from Baseline, max ([2]; Week 16): 6 | Systolic Blood Pressure, Change from Baseline, min ([2]; Week 16): −11 | Diastolic Blood Pressure Mean (SD) [2, 7]: 9 82.0 (11.14) mmHg | Diastolic Blood Pressure Q1 [2, 7]: 73.3 mmHg | Diastolic Blood Pressure Q2 [2, 7]: 82.3 mmHg | Diastolic Blood Pressure Q3 [2, 7]: 87.3 mmHg | Diastolic Blood Pressure min [2, 7]: 70 mmHg | Systolic Blood Pressure Mean (SD) [2, 7]: 9 129.6 (15.12) mmHg | Systolic Blood Pressure Q1 [2, 7]: 119.7 mmHg | Systolic Blood Pressure Q2 [2, 7]: 129.3 mmHg | Systolic Blood Pressure Q3 [2, 7]: 136.7 mmHg | Systolic Blood Pressure max [2, 7]: 159 mmHg | Diastolic Blood Pressure Mean difference [2, 8]: 0.97 (−7.91, 9.85) mmHg | Systolic Blood Pressure Mean difference [2, 8]: 8.19 (−2.91, 19.28) mmHg | Diastolic Blood Pressure, Change from Baseline, Mean difference ([2]; Week 16, interval in brackets): −3.93 (−9.96, 2.11) | Systolic Blood Pressure, Change from Baseline, Mean difference ([2]; Week 16, interval in brackets): 0.10 (−6.97, 7.17) | Diastolic Blood Pressure # Mean difference [2, 9]: −3.57 (−11.29, 4.16) mmHg | Systolic Blood Pressure # Mean difference [2, 9]: −1.68 (−12.28, 8.92) mmHg
